Results: patent US20260028354A1, “TETRAHYDRONAPHTHALENE DERIVATIVES AS ESTROGEN RECEPTOR DEGRADERS” (REGENT OF THE UNIVERSITY OF MICHIGAN, priority 2022, published 2026)
Like-named read-outs stand apart in the source and are kept apart here.

Key:
[1] = Cell growth assay (WST-8) for "B" compounds; assay type: cell-based; details: T47D, read-out: Cell growth Inhibition in T47D cell line IC50
In short: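 Four-day compound exposure of cells plated at 1500/well the day before. Read-out is WST-8 (10%, 2.5 h, 37 °C) absorbance at 450 nm, normalized to vehicle control over three independent repeats.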

ER = ER (Homo sapiens (Human), UniProt P03372); test: In-cell western blot analysis of ER for "B" compounds; assay type: cell-based; details: 16 hours, read-out: ICW DC50
In short: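 ER levels given as a percentage of untreated/DMSO-treated wells (100%). Detection used primary antibodies for 2 h at room temperature followed by 680 and 800 nm fluorescent secondaries at 1:1000 for 1 h, read by LI-COR imaging.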

Sequence of ER (P03372 whole entry): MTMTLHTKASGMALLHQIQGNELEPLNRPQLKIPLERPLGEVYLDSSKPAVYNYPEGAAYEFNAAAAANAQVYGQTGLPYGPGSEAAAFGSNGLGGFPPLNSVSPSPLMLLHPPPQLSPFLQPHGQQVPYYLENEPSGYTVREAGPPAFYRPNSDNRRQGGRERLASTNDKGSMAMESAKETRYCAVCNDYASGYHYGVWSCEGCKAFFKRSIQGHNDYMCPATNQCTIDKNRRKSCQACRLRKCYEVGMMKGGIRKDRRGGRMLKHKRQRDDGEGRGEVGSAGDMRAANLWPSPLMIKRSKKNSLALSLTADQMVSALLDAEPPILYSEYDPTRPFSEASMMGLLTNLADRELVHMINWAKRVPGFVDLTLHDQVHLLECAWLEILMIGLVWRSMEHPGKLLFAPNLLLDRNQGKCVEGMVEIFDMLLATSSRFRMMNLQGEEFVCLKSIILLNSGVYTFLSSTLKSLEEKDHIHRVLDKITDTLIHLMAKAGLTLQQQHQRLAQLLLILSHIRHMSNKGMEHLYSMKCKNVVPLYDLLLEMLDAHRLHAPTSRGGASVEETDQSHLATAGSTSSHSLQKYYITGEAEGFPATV

DC50 (ER) [nM] | SMILES | IC50 ([1]; T47D cell line) [nM] | IC50 [1] [nM]
10 to 100 | O=C1CCC(N2Cc3c(ccc4c3OC[C@H]3CN(CC5COC6(CN(c7ccc([C@@H]8c9ccc(O)cc9CC[C@@H]8c8ccccc8)cc7)C6)OC5)CCN43)C2=O)C(=O)N1 (stereo partly drawn) [Compound B327, 3-((R)-7-((2-(4-((1R,2S)-6-hydroxy-2-phenyl-1,2,3,4-tetrahydronaphthalen-1-yl)phenyl)-5,9-dioxa-2-azaspiro[3.5]nonan-7-yl)methyl)-1-oxo-1,3,5,5a,6,7,8,9-octahydro-2H-pyrazino[1′,2′:4,5][1,4]oxazino[2,3-e]isoindol-2-yl)piperidine-2,6-dione] | < 1 | –
10 to 100 | O=C1CCC(N2Cc3cc4c(cc3C2=O)OC[C@@H]2CN(CC3COC5(CN(c6ccc([C@@H]7c8ccc(O)cc8CC[C@@H]7c7ccccc7)cc6)C5)OC3)CCN42)C(=O)N1 (stereo partly drawn) [Compound B328, 3-((S)-3-((2-(4-((1R,2S)-6-hydroxy-2-phenyl-1,2,3,4-tetrahydronaphthalen-1-yl)phenyl)-5,9-dioxa-2-azaspiro[3.5]nonan-7-yl)methyl)-8-oxo-1,2,3,4,4a,5,8,10-octahydro-9H-pyrazino[1′,2′:4,5][1,4]oxazino[2,3-f]isoindol-9-yl)piperidine-2,6-dione] | 1 to 10 | –
> 100 | O=C1CCC(N2C(=O)c3cc4c(cc3C2=O)N2C[C@@H](NCC3CC5(CCN(c6ccc([C@@H]7c8ccc(O)cc8CC[C@@H]7c7ccccc7)cc6)CC5)C3)C[C@H]2CO4)C(=O)N1 (stereo partly drawn) [Compound B329, (2S,3aS)-8-(2,6-dioxopiperidin-3-yl)-2-(((7-(4-((1R,2S)-6-hydroxy-2-phenyl-1,2,3,4-tetrahydronaphthalen-1-yl)phenyl)-7-azaspiro[3.5]nonan-2-yl)methyl)amino)-2,3,3a,4-tetrahydro-1H,7H-pyrrolo[1′,2′:4,5][1,4]oxazino[2,3-f]isoindole-7,9(8H)-dione] | > 10 | –
< 10 | O=C1CCC(N2Cc3cc4c(cc3C2=O)OC[C@@H]2CN(CC3CCC5(CCN(c6ccc([C@@H]7c8ccc(O)cc8CC[C@@H]7c7ccccc7)cc6)CC5)OC3)CCN42)C(=O)N1 (stereo partly drawn) [Compound B332, 3-((4aS)-3-((9-(4-((1R,2S)-6-hydroxy-2-phenyl-1,2,3,4-tetrahydronaphthalen-1-yl)phenyl)-1-oxa-9-azaspiro[5.5]undecan-3-yl)methyl)-8-oxo-1,2,3,4,4a,5,8,10-octahydro-9H-pyrazino[1′,2′:4,5][1,4]oxazino[2,3-f]isoindol-9-yl)piperidine-2,6-dione] | 1 to 10 | –
< 10 | O=C1CC[C@H](N2Cc3c(ccc4c3OC[C@H]3CN(CC5CCC6(CN(c7ccc([C@@H]8c9ccc(O)cc9CC[C@@H]8c8ccccc8)cc7)C6)OC5)CCN43)C2=O)C(=O)N1 (stereo partly drawn) [Compound B333, (3S)-3-((5aR)-7-((2-(4-((1R,2S)-6-hydroxy-2-phenyl-1,2,3,4-tetrahydronaphthalen-1-yl)phenyl)-5-oxa-2-azaspiro[3.5]nonan-7-yl)methyl)-1-oxo-1,3,5,5a,6,7,8,9-octahydro-2H-pyrazino[1′,2′:4,5][1,4]oxazino[2,3-e]isoindol-2-yl)piperidine-2,6-dione] | < 1 | –
10 to 100 | O=C1CCC(N2Cc3cc4c(cc3C2=O)OC[C@@H]2CN(CC3CCC5(CN(c6ccc([C@@H]7c8ccc(O)cc8CC[C@@H]7c7ccccc7)cc6)C5)OC3)CCN42)C(=O)N1 (stereo partly drawn) [Compound B334, 3-((4aS)-3-((2-(4-((1R,2S)-6-hydroxy-2-phenyl-1,2,3,4-tetrahydronaphthalen-1-yl)phenyl)-5-oxa-2-azaspiro[3.5]nonan-7-yl)methyl)-8-oxo-1,2,3,4,4a,5,8,10-octahydro-9H-pyrazino[1′,2′:4,5][1,4]oxazino[2,3-f]isoindol-9-yl)piperidine-2,6-dione] | < 1 | –
10 to 100 | O=C1CC[C@H](NC(=O)c2ccc3c(n2)OC[C@H]2CN(CC4COC5(CCN(c6ccc([C@@H]7c8ccc(O)cc8CC[C@@H]7c7ccccc7)cc6)CC5)OC4)CCN32)C(=O)N1 [Compound B336, (R)-N-((S)-2,6-dioxopiperidin-3-yl)-3-((9-(4-((1R,2S)-6-hydroxy-2-phenyl-1,2,3,4-tetrahydronaphthalen-1-yl)phenyl)-1,5-dioxa-9-azaspiro[5.5]undecan-3-yl)methyl)-1,2,3,4,4a,5-hexahydropyrazino[1,2-d]pyrido[2,3-b][1,4]oxazine-8-carboxamide] | 1 to 10 | –
10 to 100 | O=C1CCC(N2C(=O)c3cc4c(cc3C2=O)CN(CC2COC3(CCN(c5ccc([C@@H]6c7ccc(O)cc7CC[C@@H]6c6ccccc6)cc5)CC3)OC2)C4)C(=O)N1 (stereo partly drawn) [Compound B338, 2-(2,6-dioxopiperidin-3-yl)-6-((9-(4-((1R,2S)-6-hydroxy-2-phenyl-1,2,3,4-tetrahydronaphthalen-1-yl)phenyl)-1,5-dioxa-9-azaspiro[5.5]undecan-3-yl)methyl)-6,7-dihydropyrrolo[3,4-f]isoindole-1,3(2H,5H)-dione] | 1 to 10 | –
> 100 | O=C1CCC(Nc2ccc(C3CCN(CC4COC5(CN(c6ccc([C@@H]7c8ccc(O)cc8CC[C@@H]7c7ccccc7)cc6)C5)OC4)CC3)cc2)C(=O)N1 (stereo partly drawn) [Compound B339, 3-((4-(1-((2-(4-((1R,2S)-6-hydroxy-2-phenyl-1,2,3,4-tetrahydronaphthalen-1-yl)phenyl)-5,9-dioxa-2-azaspiro[3.5]nonan-7-yl)methyl)piperidin-4-yl)phenyl)amino)piperidine-2,6-dione] | 1 to 10 | –
10 to 100 | O=C1CC[C@H](N2Cc3c(ccc4c3OC[C@H]3CN(CC5COC6(CCN(c7ccc([C@@H]8c9cc(Cl)c(O)cc9CC[C@@H]8c8ccccc8)cc7)CC6)OC5)CCN43)C2=O)C(=O)N1 [Compound B340, (S)-3-((R)-7-((9-(4-((1R,2S)-7-chloro-6-hydroxy-2-phenyl-1,2,3,4-tetrahydronaphthalen-1-yl)phenyl)-1,5-dioxa-9-azaspiro[5.5]undecan-3-yl)methyl)-1-oxo-1,3,5,5a,6,7,8,9-octahydro-2H-pyrazino[1′,2′:4,5][1,4]oxazino[2,3-e]isoindol-2-yl)piperidine-2,6-dione] | 1 to 10 | –
< 10 | O=C1CC[C@H](N2Cc3c(ccc4c3OC[C@H]3CN(CC(=O)OC5CCN(c6ccc([C@@H]7c8ccc(O)cc8CC[C@@H]7c7ccccc7)cc6)CC5)CCN43)C2=O)C(=O)N1 [Compound B341] | < 1 | –
< 10 | O=C1CCC(N2Cc3cc4c(cc3C2=O)OC[C@@H]2CN(CC(=O)OC3CCN(c5ccc([C@@H]6c7ccc(O)cc7CC[C@@H]6c6ccccc6)cc5)CC3)CCN42)C(=O)N1 (stereo partly drawn) [Compound B342, 1-(4-((1R,2S)-6-hydroxy-2-phenyl-1,2,3,4-tetrahydronaphthalen-1-yl)phenyl)piperidin-4-yl 2-((4aS)-9-(2,6-dioxopiperidin-3-yl)-8-oxo-1,2,4a,5,9,10-hexahydro-8H-pyrazino[1′,2′:4,5][1,4]oxazino[2,3-f]isoindol-3(4H)-yl)acetate] | 1 to 10 | –
> 100 | O=C1CCC(Nc2ccc(C3CCN(CC4COC5(CCN(c6ccc([C@@H]7c8ccc(O)cc8CC[C@@H]7c7ccccc7)cc6)CC5)C4)CC3)cc2)C(=O)N1 (stereo partly drawn) [Compound B344, 3-((4-(1-((8-(4-((1R,2S)-6-hydroxy-2-phenyl-1,2,3,4-tetrahydronaphthalen-1-yl)phenyl)-1-oxa-8-azaspiro[4.5]decan-3-yl)methyl)piperidin-4-yl)phenyl)amino)piperidine-2,6-dione] | 1 to 10 | –
> 100 | O=C1CCC(Nc2ccc(C3CCN(CC4COC5(CCN(c6ccc([C@@H]7c8ccc(O)cc8CC[C@@H]7c7ccccc7)cc6)CC5)OC4)CC3)cc2)C(=O)N1 (stereo partly drawn) [Compound B345, 3-((4-(1-((9-(4-((1R,2S)-6-hydroxy-2-phenyl-1,2,3,4-tetrahydronaphthalen-1-yl)phenyl)-1,5-dioxa-9-azaspiro[5.5]undecan-3-yl)methyl)piperidin-4-yl)phenyl)amino)piperidine-2,6-dione] | 1 to 10 | –

SMILES | DC50 (ER) [nM] | IC50 ([1]; T47D cell line) [nM] | IC50 [1] [nM]
O=C1CCC(N2Cc3c(ccc4c3OCC43CCN(CC4CCC5(CN(c6ccc([C@@H]7c8ccc(O)cc8CC[C@@H]7c7ccccc7)cc6)C5)OC4)CC3)C2=O)C(=O)N1 (stereo partly drawn) [Compound B335, 3-(1′-((2-(4-((1R,2S)-6-hydroxy-2-phenyl-1,2,3,4-tetrahydronaphthalen-1-yl)phenyl)-5-oxa-2-azaspiro[3.5]nonan-7-yl)methyl)-6-oxo-6,8-dihydro-2H,7H-spiro[furo[2,3-e]isoindole-3,4′-piperidin]-7-yl)piperidine-2,6-dione] | 10 to 100 | – | < 1
O=C1CC[C@H](N2Cc3c(ccc4c3OCC43CCN(CC4COC5(CCN(c6ccc([C@@H]7c8ccc(O)cc8CC[C@@H]7c7ccccc7)cc6)CC5)OC4)CC3)C2=O)C(=O)N1 [Compound B337, (S)-3-(1′-((9-(4-((1R,2S)-6-hydroxy-2-phenyl-1,2,3,4-tetrahydronaphthalen-1-yl)phenyl)-1,5-dioxa-9-azaspiro[5.5]undecan-3-yl)methyl)-6-oxo-6,8-dihydro-2H,7H-spiro[furo[2,3-e]isoindole-3,4′-piperidin]-7-yl)piperidine-2,6-dione] | < 10 | – | < 1
O=C1CCC(N2Cc3c(ccc4c3OCC43CCN(CC(=O)OC4CCN(c5ccc([C@@H]6c7ccc(O)cc7CC[C@@H]6c6ccccc6)cc5)CC4)CC3)C2=O)C(=O)N1 (stereo partly drawn) [Compound B343, 1-(4-((1R,2S)-6-hydroxy-2-phenyl-1,2,3,4-tetrahydronaphthalen-1-yl)phenyl)piperidin-4-yl 2-(7-((S)-2,6-dioxopiperidin-3-yl)-6-oxo-7,8-dihydro-2H,6H-spiro[furo[2,3-c]isoindolc-3,4′-piperidin]-1′-yl)acetate] | > 100 | – | 1 to 10
